# Data taken from patent US20150191469A1, “COMPOUNDS AND METHODS FOR TREATING HIV” (priority 2012, published 2015).
# System: HIV
# Assay: MT4 assay: antiviral HIV activity (cell protection, cell titer glo readout at 96 hours)
# Type: cell-based
# Settings: Human immunodeficiency virus 1, MT4, 96 h, MT4 cells, cell titer glo readout at 96 hours, 10 point dose response; read-out: HIV MT4 Assay IC50
# Protocol: Antiviral HIV activity and cytotoxicity values for compounds of the invention from Table 1 were measured in parallel in the HTLV-1 transformed cell line MT-4 based on the method previously described (Hazen et al., 2007, In vitro antiviral activity of the novel, tyrosyl-based human immunodeficiency virus (HIV) type 1 protease inhibitor brecanavir (GW640385) in combination with other antiretrovirals and against a panel of protease inhibitor-resistant HIV (Hazen et al., “In vitro antiviral activity of the novel, tyrosyl-based human immunodeficiency virus (HIV) type 1 protease inhibitor brecanavir (GW640385) in combination with other antiretrovirals and against a panel of protease inhibitor-resistant HIV”, Antimicrob. Agents Chemother. 2007, 51: 3147-3154; and Pauwels et al., “Sensitive and rapid assay on MT-4 cells for the detection of antiviral compounds against the AIDS virus”, J. of Virological Methods 1987, 16: 171-185).
# Luciferase activity was measured 96 hours later by adding a cell titer glo (Promega, Madison, Wis.). Percent inhibition of cell protection data was plotted relative to no compound control. Under the same condition, cytotoxicity of the compounds was determined using cell titer Glo™ (Promega, Madison, Wis.). IC50s were determined from a 10 point dose response curve using 3-4-fold serial dilution for each compound, which spans a concentration range >1000 fold.
# These values are plotted against the molar compound concentrations using the standard four parameter logistic equation:
# y=((Vmax*x̂n)/(K̂n+x̂n))+Y2
# Y2=minimum y n=slope factor
# Vmax=maximum y x=compound concentration [M]
row,Compound,IC50 [nM]
1,"Cc1nc2c(cc(-c3ccnc(N4CCCN(C(=O)C5CCOCC5)CC4)c3)n2C)c(-c2cc(F)c3c(c2C)CCCO3)c1[C@H](OC(C)(C)C)C(=O)O (atropisomer, axis not shown) [Example 108]",131
2,"Cc1nc2c(cc(-c3ccnc(N4C[C@@H]5CC[C@@H](C5)C4)c3)n2C)c(-c2cc(F)c3c(c2C)CCCO3)c1[C@H](OC(C)(C)C)C(=O)O (atropisomer, axis not shown) [Example 111]",27.5
3,"Cc1nc2c(cc(-c3ccnc(N4CCCN(S(=O)(=O)C5CC5)CC4)c3)n2C)c(-c2cc(F)c3c(c2C)CCCO3)c1[C@H](OC(C)(C)C)C(=O)O (atropisomer, axis not shown) [Example 114]",25
4,"Cc1nc2c(cc(-c3ccnc(N4CCN(C(=O)N(C)C)CC4)c3)n2C)c(-c2cc(F)c3c(c2C)CCCO3)c1[C@H](OC(C)(C)C)C(=O)O (atropisomer, axis not shown) [Example 115]",15.6
5,"Cc1nc2c(cc(-c3ccnc(N4CCCN(C5CCC5)CC4)c3)n2C)c(-c2cc(F)c3c(c2C)CCCO3)c1[C@H](OC(C)(C)C)C(=O)O (atropisomer, axis not shown) [Example 117]",39.1
6,"Cc1nc2c(cc(-c3ccnc(N4CC[C@@H](N(C)C)C4)c3)n2C)c(-c2cc(F)c3c(c2C)CCCO3)c1[C@H](OC(C)(C)C)C(=O)O (atropisomer, axis not shown) [Example 120]",45
7,"Cc1nc2c(cc(-c3ccnc(N4C[C@@H]5CC[C@H]4CN(C4COC4)C5)c3)n2C)c(-c2cc(F)c3c(c2C)CCCO3)c1[C@H](OC(C)(C)C)C(=O)O (atropisomer, axis not shown) [Example 122]",11.6
8,"Cc1nc2c(cc(-c3ccnc(N4CCN(C5CCOCC5)CC4)c3)n2C)c(-c2cc(F)c3c(c2C)CCCO3)c1[C@H](OC(C)(C)C)C(=O)O (atropisomer, axis not shown) [Example 127]",3.6
9,"Cc1nc2c(cc(-c3ccnc(N4CCCN(C5(C)COC5)CC4)c3)n2C)c(-c2cc(F)c3c(c2C)CCCO3)c1[C@H](OC(C)(C)C)C(=O)O (atropisomer, axis not shown) [Example 128]",10.3

# Now from value to molecule:
row,IC50 [nM],Compound
1,45,"COCCN1CCCN(c2cc(-c3cc4c(-c5cc(F)c6c(c5C)CCCO6)c([C@H](OC(C)(C)C)C(=O)O)c(C)nc4n3C)ccn2)CC1 (atropisomer, axis not shown) [Example 103]"
2,37.5,"Cc1nc2c(cc(-c3ccnc(N4CCCN(C(=O)C5CC5)CC4)c3)n2C)c(-c2cc(F)c3c(c2C)CCCO3)c1[C@H](OC(C)(C)C)C(=O)O (atropisomer, axis not shown) [Example 104]"
3,45,"Cc1nc2c(cc(-c3ccnc(N4CCc5cc(-n6c(C)ccc6C)ccc5C4)c3)n2C)c(-c2cc(F)c3c(c2C)CCCO3)c1[C@H](OC(C)(C)C)C(=O)O (atropisomer, axis not shown) [Example 106]"
4,121,"COc1ccccc1[C@H]1[C@@H]2CN(c3cc(-c4cc5c(-c6cc(F)c7c(c6C)CCCO7)c([C@H](OC(C)(C)C)C(=O)O)c(C)nc5n4C)ccn3)C[C@@H]21 (atropisomer, axis not shown) [Example 109]"
5,20,"Cc1nc2c(cc(-c3ccnc(N4CCCN(C5CCOCC5)CC4)c3)n2C)c(-c2cc(F)c3c(c2C)CCCO3)c1[C@H](OC(C)(C)C)C(=O)O (atropisomer, axis not shown) [Example 113]"
6,15,"Cc1nc2c(cc(-c3ccnc(N4CCN(C5CC5)CC4)c3)n2C)c(-c2cc(F)c3c(c2C)CCCO3)c1[C@H](OC(C)(C)C)C(=O)O (atropisomer, axis not shown) [Example 118]"
7,20,"COCCS(=O)(=O)N1CCCN(c2cc(-c3cc4c(-c5cc(F)c6c(c5C)CCCO6)c([C@H](OC(C)(C)C)C(=O)O)c(C)nc4n3C)ccn2)CC1 (atropisomer, axis not shown) [Example 119]"
8,41.5,"COCCC(=O)N1CCCN(c2cc(-c3cc4c(-c5cc(F)c6c(c5C)CCCO6)c([C@H](OC(C)(C)C)C(=O)O)c(C)nc4n3C)ccn2)CC1 (atropisomer, axis not shown) [Example 125]"
